The assay has as its target ROR gamma ligand-binding domain (hRORg) (Homo sapiens (Human), UniProt P51449). In words: GAL4-RORγ transactivation (luciferase reporter, HG5LN HeLa line). The assay is classed as cell-based. The following applies: 18 hours incubation. From the text:
GAL4-RORγ Transactivation
The RORγ transactivation model was developed from the line HG5LN, which is a HeLa line that stably expresses a luciferase reporter gene controlled by a pentamer of the GAL4 recognition domain of yeast and of a β-globin promoter. The HG5LN line was stably transfected by the DNA-binding domain (DBD) of GAL4 fused to the ROR gamma ligand-binding domain (LBD). Molecules that inhibit the ROR gamma constitutive activity reduce the luciferase expression, thus leading to a reduction in the emitted luminescence.
The cells are seeded in 384-well plates (5000 cells in 45 μL/well of culture medium containing 10% fetal calf serum) and incubated for 4 hours at 37° C., 5% CO2. 5 μL of the test molecules (compounds described in the tables described above) are then added to each well and the plates are incubated for 18 hours at a temperature of 37° C. under 5% of CO2. 20 μL of luciferase substrate (Promega) are added to each well and the luminescence emitted is read by a microplate reader.
The luminescence units (“RLU”) are normalized by positive controls (“POS” containing a saturated concentration of benzenesulfonamide, N-(2,2,2-trifluoroethyl)-N-[4-[2,2,2-trifluoro-1-hydroxy-1-(trifluoromethyl)ethyl]phenyl]) and negative controls (“NEG” containing DMSO): % inhibition=((RLU−NEG)*100)/(POS−NEG). The IC50 values are calculated from a 4-parameter logistic model using the XLFit software (IDBS).
For orientation: Reporter assays use an easily measured gene product as a stand-in for the process of interest.

Among the data in patent US10457637B2, “Benzenesulfonamide derivatives as inverse agonists of retinoid-related orphan receptor gamma (RORγ(T))” (GALDERMA RESEARCH & DEVELOPMENT, priority 2014, dated 2019) are IC50 values, retold here.

As usually defined, the IC50 is the concentration needed to halve the response being measured. A high value points to a need for much substance.

ROR gamma ligand-binding domain (hRORg), sequence (P51449 269-508): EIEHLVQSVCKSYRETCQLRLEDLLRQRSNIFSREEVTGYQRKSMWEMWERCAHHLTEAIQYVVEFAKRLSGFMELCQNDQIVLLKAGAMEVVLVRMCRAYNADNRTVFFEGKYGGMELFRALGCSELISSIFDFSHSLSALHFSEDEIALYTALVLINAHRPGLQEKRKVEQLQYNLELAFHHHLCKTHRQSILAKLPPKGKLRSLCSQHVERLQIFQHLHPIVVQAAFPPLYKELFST

For the compound `CCc1ccc(N(CC(C)C)S(=O)(=O)c2ccc(OCC3(F)COC3)c(S(C)(=N)=O)c2)cc1` (centres unmarked) [compound 32, N-(4-eethylphenyl)-4-((3-fluorooxetan-3-yl)methoxy)-N-isobutyl-3-(S-methylsulfonimidoyl)benzenesulfonamide], the IC50 is greater than 1000 nM.

On to `CCc1ccc(N(CC(C)C)S(=O)(=O)c2ccc([S+]([O-])CC3CCOCC3)c(C(=O)OC)c2)cc1` (centres unmarked) [compound 16, methyl 5-[(4-ethylphenyl)isobutylsulfamoyl]-2-(tetrahydropyran-4-ylmethanesulfinyl)benzoate], for which the 50% inhibitory concentration (IC50) is greater than 1000 nM.

Compound `CCc1ccc(N(CC(C)C)S(=O)(=O)c2ccc(NCC3CCC(=O)NC3)c(S(C)(=N)=O)c2)cc1` (centres unmarked) [compound 58, N-(4-ethylphenyl)-N-isobutyl-3-(S-methylsulfonimidoyl)-4-(((6-oxopiperidin-3-yl)methyl)amino)benzenesulfonamide] displayed an IC50 greater than 1000 nM.

In the case of `CCc1ccc(N(CC(C)C)S(=O)(=O)c2ccc(OC3CCN(C(=O)OC(C)(C)C)CC3)c(S(C)(=N)=O)c2)cc1` (centres unmarked) [compound 33, tert-butyl 4-(4-(N-(4-ethylphenyl)-N-isobutylsulfamoyl)-2-(S-methylsulfonimidoyl)phenoxy)piperidine-1-carboxylate], the IC50 is greater than 1000 nM.

Compound `CCc1ccc(N(CC(C)C)S(=O)(=O)c2ccc(NCc3c(C)noc3C)c(S(C)(=N)=O)c2)cc1` (centres unmarked) [compound 97, 4-(((3,5-dimethylisoxazol-4-yl)methyl)amino)-N-(4-ethylphenyl)-N-isobutyl-3-(S-methylsulfonimidoyl)benzenesulfonamide] came in with an IC50 of 100 to 1000 nM.

On to `CCc1ccc(N(CC(C)C)S(=O)(=O)c2ccc3c(c2)[S+]([O-])CN3CC2CCOCC2)cc1` (centres unmarked) [compound 75, 1-oxo-3-(tetrahydropyran-4-ylmethyl)-2,3-dihydro-1H-1λ^4-benzothiazole-6-sulfonic acid (4-ethylphenyl)isobutylamide], for which the IC50 was greater than 1000 nM.

With `CCc1ccc(N(CC(C)C)S(=O)(=O)c2ccc(N3CC4CC3CO4)c(S(C)(=N)=O)c2)cc1` [compound 117, 4-((1R,4R)-2-oxa-5-azabicyclo[2.2.1]heptan-5-yl)-N-(4-ethylphenyl)-N-isobutyl-3-(S-methylsulfonimidoyl)benzenesulfonamide], the IC50 fell in the range of 100 to 1000 nM.

In turn, `CCc1ccc(N(CC(C)C)S(=O)(=O)c2ccc(OCC(O)CO)c(S(C)(=N)=O)c2)cc1` (centres unmarked) [compound 40, 4-(2,3-dihydroxypropoxy)-N-(4-ethylphenyl)-N-isobutyl-3-(S-methylsulfonimidoyl)benzenesulfonamide] yielded an IC50 greater than 1000 nM.

Consider `CCc1ccc(N(CC(C)C)S(=O)(=O)c2ccc(N3CC4(CNC4)C3)c(S(C)(=N)=O)c2)cc1` (centres unmarked) [compound 121, -(4-ethylphenyl)-N-isobutyl-3-(S-methylsulfonimidoyl)-4-(2,6-diazaspiro[3.3]heptan-2-yl)benzenesulfonamide], for which the IC50 is greater than 1000 nM.

Consider `CCc1ccc(N(CC(C)C)S(=O)(=O)c2ccc(NCC3CCS(=O)(=O)C3)c(S(C)(=N)=O)c2)cc1` (centres unmarked) [compound 56, 4-(((1,1-dioxidotetrahydrothiophen-3-yl)methyl)amino)-N-(4-ethylphenyl)-N-isobutyl-3-(S-methylsulfonimidoyl)benzenesulfonamide], for which the IC50 lay in the range of 100 to 1000 nM.

For `CCc1ccc(N(CC(C)C)S(=O)(=O)c2ccc(OCC3CCN(C(C)=O)CC3)c(S(C)(=N)=O)c2)cc1` (centres unmarked) [compound 50, 4-((1-acetylpiperidin-4-yl)methoxy)-N-(4-ethylphenyl)-N-isobutyl-3-(S-methylsulfonimidoyl)benzenesulfonamide], the IC50 was greater than 1000 nM.

Turning to `CCc1ccc(N(CC(C)C)S(=O)(=O)c2ccc(OCc3cc(C)nc(C)c3)c(S(C)(=N)=O)c2)cc1` (centres unmarked) [compound 43, 4-((2,6-dimethylpyridin-4-yl)methoxy)-N-(4-ethylphenyl)-N-isobutyl-3-(S-methylsulfonimidoyl)benzenesulfonamide], the IC50 is greater than 1000 nM.

The compound `CCc1ccc(N(CC(C)C)S(=O)(=O)c2ccc(NC3CCS(=O)(=O)C3)c(S(C)(=N)=O)c2)cc1` (centres unmarked) [compound 86, 4-((1,1-dioxidotetrahydrothiophen-3-yl)amino)-N-(4-ethylphenyl)-N-isobuytl-3-(S-methylsulfonimidoyl)benzenesulfonamide] registered an IC50 of 100 to 1000 nM.

The compound `CCc1ccc(N(CC(C)C)S(=O)(=O)c2ccc3c(c2)[S+]([O-])C(C)(C)N3CC2CCOCC2)cc1` (centres unmarked) [compound 74, 2,2-dimethyl-1-oxo-3-(tetrahydropyran-4-ylmethyl)-2,3-dihydro-1H-1λ^4-benzothiazole-6-sulfonic acid (4-ethylphenyl)isobutylamide] gave an IC50 of 100 to 1000 nM.

The compound `CCc1ccc(N(CC(C)C)S(=O)(=O)c2ccc3c(c2)sc(=O)n3CC2CCOCC2)cc1` [compound 72] displayed an IC50 of 100 to 1000 nM.

`CCc1ccc(N(CC(C)C)S(=O)(=O)c2ccc(N3CC4(COC4)C3)c(S(C)(=N)=O)c2)cc1` (centres unmarked) [compound 111, N-(4-ethylphenyl)-N-isobutyl-3-(S-methylsulfonimidoyl)-4-(2-oxa-6-azaspiro[3.3]heptan-6-yl)benzenesulfonamide]: the IC50 is less than 100 nM.

Turning to `CCc1ccc(N(CC(C)C)S(=O)(=O)c2ccc(N3CCCOCC3)c(S(C)(=N)=O)c2)cc1` (centres unmarked) [compound 137, N-(4-ethylphenyl)-N-isobutyl-3-(S-methylsulfonimidoyl)-4-(1,4-oxazepan-4-yl)benzenesulfonamide], the IC50 is 100 to 1000 nM.

Compound `CCc1ccc(N(CC(C)C)S(=O)(=O)c2ccc(SCC3CCOCC3)c(C(=O)OC)c2)cc1` [compound 17, methyl 5-[(4-ethylphenyl)isobutylsulfamoyl]-2-(tetrahydropyran-4-ylmethylsulfanyl)benzoate] gave a half-maximal inhibitory concentration (IC50) greater than 1000 nM.

`CCc1ccc(N(CC(C)C)S(=O)(=O)c2ccc(N3CCC4(CC3)COC4)c(S(C)(=N)=O)c2)cc1` (centres unmarked) [compound 114, N-(4-ethylphenyl)-N-isobutyl-3-(S-methylsulfonimidoyl)-4-(2-oxa-7-azaspiro[3.5]nonan-7-yl)benzenesulfonamide] showed an IC50 of 100 to 1000 nM.

In turn, `CCc1ccc(N(CC(C)C)S(=O)(=O)c2ccc(S(=N)(=O)CC3CCOCC3)cc2)cc1` (centres unmarked) [compound 28, N-(4-ethylphenyl)-N-isobutyl-4-(tetrahydropyran-4-ylmethanesulfoximimyl)benzenesulfonamide] displayed an IC50 greater than 1000 nM.

`COc1ccc(N(C(C)C)S(=O)(=O)c2ccc(OCC3CCOCC3)c(S(C)(=N)=O)c2)c(C)c1` (centres unmarked) [compound 143, N-isopropyl-N-(4-methoxy-2-methylphenyl)-3-(S-methylsulfonimidoyl)-4-((tetrahydro-2H-pyran-4-yl)methoxy)benzenesulfonamide] yielded an IC50 of 100 to 1000 nM.

On to `CCc1ccc(N(CC(C)C)S(=O)(=O)c2ccc(Oc3ccc(C#N)cc3)c(S(C)(=N)=O)c2)cc1` (centres unmarked) [compound 80, 4-(4-cyanophenoxy)-N-(4-ethylphenyl)-N-isobutyl-3-(S-methylsulfonimidoyl)benzenesulfonamide], for which the IC50 is greater than 1000 nM.

As for `CCc1ccc(N(CC(C)C)S(=O)(=O)c2ccc3c(c2)NCCS3)cc1` [compound 9, 3,4-dihydro-2H-benzo[1,4]thiazine-6-sulfonic acid (4-ethylphenyl)isobutylamide], the IC50 was greater than 1000 nM.

`CCc1ccc(N(CC(C)C)S(=O)(=O)c2ccc(NC3CCC(=O)NC3)c(S(C)(=N)=O)c2)cc1` (centres unmarked) [compound 85, N-(4-ethylphenyl)-N-isobutyl-3-(S-methylsulfonimidoyl)-4-((6-oxopiperidin-3-yl)amino)benzenesulfonamide] returned an IC50 greater than 1000 nM.

`CCc1ccc(N(CC(C)C)S(=O)(=O)c2ccc(NCc3ccnc(C)c3)c(S(C)(=N)=O)c2)cc1` (centres unmarked) [compound 90, N-(4-ethylphenyl)-N-isobutyl-4-(((2-methylpyridin-4-yl)methyl)amino)-3-(S-methylsulfonimidoyl)benzenesulfonamide] returned an IC50 greater than 1000 nM.

Consider `CCc1ccc(N(CC(C)C)S(=O)(=O)c2ccc(OCC3CCOCC3)c(SC)c2)cc1` [compound 25, N-(4-ethylphenyl)-N-isobutyl-3-methylsulfanyl-4-(tetrahydropyran-4-ylmethoxy)benzenesulfonamide], for which the IC50 lay within 100 to 1000 nM.

The compound `CCc1ccc(N(CC(C)C)S(=O)(=O)c2ccc(N3CC4(CN(C(=O)OC(C)(C)C)C4)C3)c(S(C)(=N)=O)c2)cc1` (centres unmarked) [compound 110, tert-butyl 6-(4-(N-(4-ethylphenyl)-N-isobutylsulfamoyl)-2-(S-methylsulfonimidoyl)phenyl)-2,6-diazaspiro[3.3]heptane-2-carboxylate] had an IC50 greater than 1000 nM.

`CCc1ccc(N(CC(C)C)S(=O)(=O)c2ccc(OCC3C4COCC43)c(S(C)(=N)=O)c2)cc1` (centres unmarked) [compound 31, 4-((3-oxabicyclo[3.1.0]hexan-6-yl)methoxy)-N-(4-ethylphenyl)-N-isobutyl-3-(S-methylsulfonimidoyl)benzenesulfonamide] showed an IC50 of less than 100 nM.

On to `CCc1ccc(N(CC(C)C)S(=O)(=O)c2ccc(NCc3ccnc(OC)c3)c(S(C)(=N)=O)c2)cc1` (centres unmarked) [compound 127, N-(4-ethylphenyl)-N-isobutyl-4-(((2-methoxypyridin-4-yl)methyl)amino)-3-(S-methylsulfonimidoyl)benzenesulfonamide], for which the IC50 was 100 to 1000 nM.
